Results reported in US12391701B2, “Chromene-based compounds, methods and uses thereof” (University of Minho, priority 2019, dated 2025).
Where two headings read alike, the source gives them in different places.

How the values were obtained:
Type in all cases: cell-based
[1] = system: renal carcinoma cell line 786-O; assay: Cell viability (sulforhodamine B), 786-O; details: Homo sapiens, 786-0; Table 5
Method: (§1) In an embodiment, the antiproliferative activity of the compounds was further determined against renal carcinoma cell lines and non-neoplastic kidney cell line.
(§2) In an embodiment, three human breast cancer cell lines Hs578T, MDA-MB-468 and MCF-7, and a normal breast cell line MCF-10A, were obtained from ATCC (American Type Culture Collection). The cancer cell lines were cultured in Dulbecco's modified Eagle medium, 4.5 g/l glucose (DMEM, Gibco) supplemented with 10% heating inactivated Fetal Bovine Serum (FBS, Gibco) and 1% antibiotic solution (Penicillin-Streptomycin, Gibco). The normal cell line was cultured in Dulbecco's Modified Eagle Medium: Nutrient Mixture F-12 (DMEM/F12, Gibco) supplemented with 5% heating inactivated FBS (Gibco), 1% antibiotic solution (Penicillin-Streptomycin, Gibco), 1% steroid hormone (Hydrocortisone, Sigma-Aldrich), 0.1% peptide hormone (Insulin, Sigma-Aldrich) and 0.01% protein complex (Cholera Toxin, Gibco). Two distinct human acute myeloid leukemia (AML) cell lines, HL-60 (FAB M2) and KG-1 (erythroleukemia-FAB M6), and one human lymphoblastic leukemia (ALL) cell line, Jurkat (T cell type), were also used. These three cell lines were obtained from German Collection of Microorganisms and Cell cultures (DMSZ®, Deutsche Sammlung von Mikroorganismen and Zellkulturen in German). Cells were cultured in RPMI 1640 medium (Biochrom®-Merck Millipore) supplemented with 10% heating inactivated FBS (Biochrom®-Merck Millipore) and 1% antibiotic/antimitotic mixture (Invitrogen®). Three human glioblastoma (GBM) cell line models, two established and commercially available cell lines (U87MG and GAMG, kind gift from Rui M. Reis) and one primary GBM culture (GLIB) were also used. GBM cells were cultures in DMEM (Biochrom-Merck Millipore), all supplemented with 10% FBS. The Renal cell carcinoma cell lines A498, 786-O, Caki-2 and HK2 were obtained from ATCC. The cancer cell line A498 was cultured in MEM medium (Biochrom®-Merck Millipore), 786-O was cultured in RPMI 1640 medium (Biochrom®-Merck Millipore), Caki-2 was cultured in Mc Coys medium (Biochrom®-Merck Millipore) and HK2 was cultured in RPMI 1640 medium (Biochrom®-Merck Millipore). All the media were supplemented with 10% heat inactivated FBS (Biochrom®-Merck Millipore) and 1% antibiotic/antimitotic mixture (Invitrogen®). All cells were grown in a humidified incubator at 37° C. and 5% CO2. For all assays, DMSO (Dimethyl Sulfoxide, Sigma-Aldrich) controls were used.
(§3) In an embodiment, cell viability assays were performed. MCF-7, Hs578T and MCF-10A cells were plated in triplicate in 96-multiwell culture plates, at 3000 cells per mL, or 5000 cells per mL for MDA-MB-468 (100 μL/well). The cells were then allowed to adhere in complete medium, over a period of 18-20 hours. Cells were subsequently treated with 7 different concentrations (from 0.1 to 40 μM or 5 to 60 μM) of compounds or control in fresh medium. HL-60, KG-1 and Jurkat cell lines were plated in 96-multiwell culture plates at 50.000 cells/100 μL per well and treated with different concentrations (from 0.001 to 2 μM) of the compounds described (or control). Cells were plated, in triplicate, at an initial density of 2000 cells/well for GAMG, 4000 cells/well for GL18 and 6000 cells/well for U87MG, in 96-well plates, and allowed to adhere for 18-20 hours. Cells were then treated with different concentrations of the compounds (0.005 to 100 μM) or with control. A498 and 786-O cells were plated at 2000 cells per mL, Caki-2 cells were plated at 3000 cells per mL and HK2 cells were plated at 2000 cells per mL in triplicate, in 96-multiwell culture plates (100 μL/well), and allowed to adhere over a period of 18-20 hours in complete medium. The cells were then treated with 7 different concentrations (from 0.1 to 40 μM or 5 to 60 μM) of compounds or control in fresh medium. […]

[2] = system: renal carcinoma cell line Caki-2; assay: Cell viability (sulforhodamine B), Caki-2; details: Homo sapiens, Table 5
Method: as §1, §2, §3

[3] = system: non-neoplastic cell line (HK2); assay: Cell viability, HK2
Method: as §1, §2, §3

[4] = system: breast cancer cell line MCF-7; assay: Cell viability assay (MTS), MCF-7; details: Homo sapiens, MCF7; 72 h incubation
Method: (§4) In an embodiment, the cell growth inhibition and IC50 values of the synthesised and isolated chromene-based compounds were determined as part of the evaluation of the antiproliferative activity of the isolated agents. A complete study on the structure-activity relationship was performed for all the synthesised compounds. The antiproliferative activity against MCF-7 breast cancer cell lines were analysed. […] The non-neoplastic cell line MCF-10A was also used to determine the selectivity of the compounds for the tumour cells. For compounds with an IC50 value (concentration required to reduce cell viability by 50%) higher than 20 μM, the IC50 value was not determined. Selectivity index (SI) was calculated in order to evaluate the cytotoxicity of the tested compounds.
as §2
(§5) In an embodiment, cell viability assays were performed. MCF-7, Hs578T and MCF-10A cells were plated in triplicate in 96-multiwell culture plates, at 3000 cells […], or 5000 cells […] for MDA-MB-468 (100 μL/well). The cells were then allowed to adhere in complete medium, over a period of 18-20 hours. Cells were subsequently treated with 7 different concentrations (from 0.1 to 40 μM or 5 to 60 μM) of compounds or control in fresh medium. HL-60, KG-1 and Jurkat cell lines were plated in 96-multiwell culture plates at 50.000 cells/100 μL per well and treated with different concentrations (from 0.001 to 2 μM) of the compounds described (or control). Cells were plated, in triplicate, at an initial density of 2000 cells/well for GAMG, 4000 cells/well for GL18 and 6000 cells/well for U87MG, in 96-well plates, and allowed to adhere for 18-20 hours. […]

[5] = system: non-neoplastic cell line MCF-10A; assay: Cell viability assay (MTS), MCF-10A; details: Homo sapiens, 72 h incubation
Method: as §4, §2, §5

[6] = Table 6, read-out: IC50 (μM) HK2

| SMILES | IC50 [1] [nM] | IC50 [2] [nM] | IC50 ([3]; Table 5, read-out: IC50 HK2) [µM] | IC50 [3, 6] [µM] | IC50 [4] [nM] | IC50 [5] [µM] |
| --- | --- | --- | --- | --- | --- | --- |
| COc1cccc2c1Oc1nc(-c3cc(F)cc(F)c3O)[nH]c1C2 [MC410, 2,4-difluoro-6-(5-methoxy-3,9-dihydrochromeno[2,3-d]imidazol-2-yl)phenol] | 446 | 8530 | 23.1 | 23.1 | 3530 | > 30 |
| COc1cccc2c1Oc1nc(-c3ccc(F)cc3)[nH]c1C2C1c2cccc(OC)c2Oc2nc(-c3ccc(F)cc3)[nH]c21 (stereo not drawn) [MC406, 2,2′-bis(4-fluorophenyl)-5,5′-dimethoxy-1,1,9,9′-tetrahydro-9,9′-bichromeno[2,3-]imidazoles] | 84 | 178 | 0.31 | – | 200 | 12.7 |
| COc1ccc(-c2nc3c([nH]2)Cc2cccc(OC)c2O3)c(Br)c1O [MC416, 2-bromo-6-methoxy-3-(5-methoxy-3,9-dihydrochromeno[2,3-]imidazol-2-yl)phenol] | 3140 | 2540 | 4.72 | 4.72 | 1040 | 1.99 |
| COc1ccccc1-c1nc2c([nH]1)Cc1cccc(OC)c1O2 [MC411, 5-methoxy-2-(2-methoxyphenyl)-3,9-dihydrochromeno[2,3-]imidazoles] | 3730 | 3960 | 4.73 | 4.73 | 1710 | 6.82 |
| COc1cccc2c1Oc1nc(-c3ccccc3)[nH]c1C2 [MC350, 5-methoxy-2-phenyl-3,9-dihydrochromeno[2,3-d]imidazoles] | 513 | 394 | 21.5 | 21.5 | 740 | 8.46 |
| COc1cccc2c1Oc1nc(-c3ccccc3F)[nH]c1C2C1c2cccc(OC)c2Oc2nc(-c3ccccc3F)[nH]c21 (stereo not drawn) [MC369, 2,2′-bis(2-fluorophenyl)-5,5′-dimethoxy-1,1,9,9′-tetrahydro-9,9′-bichromeno[2,3-]imidazoles] | 53 | 109 | 0.83 | – | 260 | > 20 |
| COc1cccc2c1Oc1nc(-c3ccccc3F)[nH]c1C2 [MC407, 2-(2-fluorophenyl)-5-methoxy-3,9-dihydrochromeno[2,3-d]imidazoles] | 673 | 433 | 1.03 | – | 670 | 3.93 |
| COc1cccc2c1Oc1nc(-c3ccc(Br)cc3)[nH]c1C2C1c2cccc(OC)c2Oc2nc(-c3ccc(Br)cc3)[nH]c21 (stereo not drawn) [MC421, 2,2′-bis(4-bromophenyl)-5,5′-dimethoxy-1,1,9,9′-tetrahydro-9,9′-bichromeno[2,3-]imidazoles] | 77 | 431 | 2.49 | 2.49 | 310 | > 30 |
| CCOc1ccc(-c2nc3c([nH]2)Cc2cccc(OC)c2O3)cc1 [MC415, 2-(4-ethoxyphenyl)-5-methoxy-3,9-dihydrochromeno[2,3-d]imidazoles] | 221 | 62 | 5.24 | 5.24 | 1640 | 1.9 |
| COc1cccc2c1Oc1nc(-c3ccc(F)cc3)[nH]c1C2 [MC409, 2-(4-fluorophenyl)-5-methoxy-3,9-dihydrochromeno[2,3-d]imidazoles] | 495 | 359 | 3.49 | 3.49 | 650 | 14.3 |
| COc1cccc2c1Oc1nc(-c3ccc(O)cc3)[nH]c1C2 [MC413, 4-(5-methoxy-3,9-dihydrochromeno[2,3-d]imidazol-2-yl)phenol] | 728 | 381 | 10.3 | 10.3 | 1090 | > 20 |
| COc1cccc2c1Oc1nc(-c3ccc(Br)cc3)[nH]c1C2 [MC408, 2-(4-bromophenyl)-5-methoxy-3,9-dihydrochromeno[2,3-d]imidazoles] | 64 | 89 | 3.49 | 3.49 | 620 | 2.99 |
